Measurements as given in patent EP0531119B1, “N,N',N'-trisubstituted -5-bis-aminomethylene-1,3-dioxane-4,6-dione inhibitors of acyl-CoA: cholesterol-acyl transferase” (AMERICAN HOME PRODUCTS CORPORATION, priority 1991, dated 1993).

Key:
plasma cholesterol = experiment: Cholesterol-cholic acid fed rat, decrease of plasma cholesterol; assay type: in vivo; conditions: 10 mg/kg, oral gavage just prior to and just following feeding, four days
Procedure: In addition, the product of Example 1 was studied in vivo in the cholesterol-cholic acid fed rat to determine the percent decrease of cholesterol in their plasma This study involves rats which are, prior to testing, trained for one week to eat over a four hour time period each day. Upon initiation of the experiment, the rats diet is supplemented with 1.0 percent cholesterol and 0.25 percent cholic acid. The rats are dosed with the test compound by oral gavage just prior to and just following the four hour feeding period. This is repeated for four days. On the fifth day, the rats are sacrificed and the total plasma cholesterol content is determined. The percent decrease in elevated plasma cholesterol levels is calculated in comparison with […] controls.

[1] = system: acyl-coenzyme A: cholesterol acyltransferase; experiment: Inhibition of intracellular cholesterol esterification (ACAT), test procedure of Ross et al.; assay type: cell-based; conditions: for % Inhib, (Concentration - µM): 25 µM; for IC50: read-out: IC₅₀
Excerpt: The ability of the compounds of this invention to inhibit acyl-coenzyme A: cholesterol acyltransferase was established by initially showing that they inhibited intracellular cholesterol esterification by subjecting them to the standard experimental test procedure of Ross et al., J. Biol. Chem. 259 815 (1984). The results of these studies are presented in: Table I

[2] = system: ¹⁴C-Cholesterol Absorption; experiment: In vivo 14C-cholesterol absorption in normal rats; conditions: oral gavage, blood samples six hours later
Procedure: Representative compounds were further tested in vivo to establish the percent inhibition of cholesterol absorption. In this study, normal rats were dosed (oral gavage) with ¹⁴C-cholesterol plus the test compound. Blood samples taken exactly six hours later were analyzed and the percent inhibition of cholesterol absorption was calculated as shown in: Table II

Row | Structure (SMILES) | decrease in plasma cholesterol (plasma cholesterol) | % Inhib, (Concentration - µM) [1] | IC50 [1] | % Inhibition of Absorption ([2]; dose 10 mg/kg) | % Inhibition of Absorption ([2]; dose 3 mg/kg)
1 | CCCCCCN(Cc1ccnc2ccccc12)C(Nc1cc(C(C)(C)C)c(O)c(C(C)(C)C)c1)=C1C(=O)OC(C)(C)OC1=O [Example 1, 5-[[[3,5-Bis(1,1-dimethylethyl)-4-hydroxyphenyl]amino][hexyl(4-quinolinylmethyl)amino]methylene]-2,2-dimethyl-1,3-dioxane-4,6-dione] | 50% | 69 (25) % | 2960 nM | 72% | –
2 | CCCCCCN(Cc1ccnc2ccccc12)C(Nc1ccc(OC)cc1OC)=C1C(=O)OC(C)(C)OC1=O [Example 2, 5-[[(2,4-Dimethoxyphenyl)amino][hexyl(4-quinolinylmethyl)amino]methylene]-2,2-dimethyl-1,3-dioxane-4,6-dione] | – | – | – | – | 2%
3 | CCCCCCN(Cc1ccc2ccccc2n1)C(Nc1cc(C(C)(C)C)c(O)c(C(C)(C)C)c1)=C1C(=O)OC(C)(C)OC1=O [Example 3, 5-[[[3,5-Bis(1,1-dimethylethyl)-4-hydroxyphenyl]amino][hexyl(2-quinolinylmethyl)amino]methylene]-2,2-dimethyl-1,3-dioxane-4,6-dione] | – | 55 (25) % | 2330 nM | – | 11%
4 | CCCCCCN(Cc1ccc2ccccc2n1)C(Nc1ccc(OC)cc1OC)=C1C(=O)OC(C)(C)OC1=O [Example 4, 5-[[(2,4-Dimethoxyphenyl)amino][hexyl(2-quinolinylmethyl)amino]methylene]-2,2-dimethyl-1,3-dioxane-4,6-dione] | – | 72 (25) % | 5160 nM | – | –
5 | CCCCCC(C)N(Cc1ccc2ccccc2n1)C(Nc1ccc(OC)cc1OC)=C1C(=O)OC(C)(C)OC1=O (stereo not drawn) [Example 5] | – | 90 (25) % | 2420 nM | – | –
6 | CCCCCC(C)N(Cc1ccc2ccccc2n1)C(Nc1cc(C(C)(C)C)c(O)c(C(C)(C)C)c1)=C1C(=O)OC(C)(C)OC1=O (stereo not drawn) [Example 6] | – | 95 (25) % | 1550 nM | – | –
7 | CCCCCC(C)N(Cc1ccnc2ccccc12)C(Nc1ccc(OC)cc1OC)=C1C(=O)OC(C)(C)OC1=O (stereo not drawn) [Example 7, 5-[[(2,4-Dimethoxyphenyl)amino][(1-methylhexyl)(4-quinolinylmethyl)amino]methylene]-2,2-dimethyl-1,3-dioxane-4,6-dione] | – | 51 (25) % | 9410 nM | – | –
8 | CCCCCC(C)N(Cc1ccnc2ccccc12)C(Nc1cc(C(C)(C)C)c(O)c(C(C)(C)C)c1)=C1C(=O)OC(C)(C)OC1=O (stereo not drawn) [Example 8, 5-[[[3,5-Bis(1,1-dimethylethyl)-4-hydroxyphenyl]amino][(1-methylhexyl)(4-quinolinylmethyl)amino]methylene]-2,2-dimethyl-1,3-dioxane-4,6-dione] | – | 97 (25) % | 1650 nM | – | –
9 | CCCCCCN(Cc1cnc2ccccc2c1)C(Nc1cc(C(C)(C)C)c(O)c(C(C)(C)C)c1)=C1C(=O)OC(C)(C)OC1=O [Example 9, 5-[[[3,5-Bis(1,1-dimethylethyl)-4-hydroxyphenyl]amino][hexyl(3-quinolinylmethyl)amino]methylene]-2,2-dimethyl-1,3-dioxane-4,6-dione] | – | 98 (25) % | 1350 nM | – | –
10 | CCCCCCN(Cc1ccncc1)C(Nc1cc(C(C)(C)C)c(O)c(C(C)(C)C)c1)=C1C(=O)OC(C)(C)OC1=O [Example 10, 5-[(3,5-Di-tert-butyl-4-hydroxy-phenylamino)-(hexyl-(pyridin-4-ylmethyl)-amino)-methylene]-2,2-dimethyl-1,3-dioxane-4,6-dione] | – | 94 (25) % | 5820 nM | – | –
11 | CCCCCCN(Cc1ccncc1)C(Nc1ccc(OC)cc1OC)=C1C(=O)OC(C)(C)OC1=O [Example 11] | – | 24 (25) % | – | – | –
12 | CCCCCCN(Cc1ccccn1)C(Nc1cc(C(C)(C)C)c(O)c(C(C)(C)C)c1)=C1C(=O)OC(C)(C)OC1=O [Example 12, 5-[(3,5-Di-tert-butyl-4-hydroxy-phenylamino)-(hexyl-(pyridin-2-ylmethyl)-amino]-methylene]-2,2-dimethyl-[1,3]-dioxane-4,6-dione] | – | 92 (25) % | 4110 nM | 65% | –
13 | CCCCCCN(Cc1ccccn1)C(Nc1ccc(OC)cc1OC)=C1C(=O)OC(C)(C)OC1=O [Example 13, 5-[(2,4-Dimethoxyphenylamino)-[hexyl-(pyridin-2-ylmethyl)-amino]-methylene]-2,2-dimethyl-[1,3]-dioxane-4,6-dione] | – | 26 (25) % | – | – | –
14 | CCCCCCN(Cc1cccnc1)C(Nc1ccc(OC)cc1OC)=C1C(=O)OC(C)(C)OC1=O [Example 14, 5-[(2,4-Dimethoxy-phenylamino)-[hexyl-(pyridin-3-ylmethyl)-amino]-methylene]-2,2-dimethyl-[1,3]-dioxane-4,6-dione] | – | 18 (25) % | – | – | –
15 | CCCCCCN(Cc1cccnc1)C(Nc1cc(C(C)(C)C)c(O)c(C(C)(C)C)c1)=C1C(=O)OC(C)(C)OC1=O [Example 15, 5-[(3,5-Di-tert-butyl-4-hydroxy-phenylamino)-[hexyl-(pyridin-3-ylmethyl)-amino]-methylene]-2,2-dimethyl-1,3-dioxane-4,6-dione] | – | 97 (25) % | 3900 nM | – | 48%
16 | CCCCCCCN(Cc1ccc(CC(C)(C)C)s1)C(Nc1ccc(OC)cc1OC)=C1C(=O)OC(C)(C)OC1=O [Example 16, 5-[[(2,4-Dimethoxyphenyl)amino][[[5-(2,2-dimethylpropyl)-2-thienyl]methyl]heptylamino]-methylene]-2,2-dimethyl-1,3-dioxane-4,6-] | – | 94 (25) % | 2960 nM | – | –
17 | CCCCCCCN(Cc1ccc(CC(C)(C)C)s1)C(Nc1cc(C(C)(C)C)c(O)c(C(C)(C)C)c1)=C1C(=O)OC(C)(C)OC1=O [Example 17, 5-[[[3,5-Bis(1,1-dimethylethyl)-4-hydroxyphenyl]amino][[[5-(2,2-dimethylpropyl)-2-thienyl]methyl]heptylamino]methylene]-2,2-dimethyl-1,3-dioxane-4,6-dione] | – | – | 700 nM | – | –
18 | CCCCCC(C)N(Cc1ccc(CC(C)(C)C)s1)C(Nc1ccc(OC)cc1OC)=C1C(=O)OC(C)(C)OC1=O (stereo not drawn) [Example 18, 5-[[(2,4-Dimethoxyphenyl)amino][[[5-(2,2-dimethylpropyl)-2-thienyl]methyl](1-methylhexyl)-amino]methylene]-2,2-dimethyl-1,3-dioxane-4,6-dione] | – | 97 (25) % | – | – | –
19 | CCCCCCC(C)N(Cc1ccc(CC(C)(C)C)s1)C(Nc1cc(C(C)(C)C)c(O)c(C(C)(C)C)c1)=C1C(=O)OC(C)(C)OC1=O (stereo not drawn) [Example 19, 5-[[[3,5-Bis(1,1-dimethylethyl)-4-hydroxyphenyl]amino][[[5-(2,2-dimethylpropyl)-2-thienyl]methyl](1-methylheptyl)amino]methylene]-2,2-dimethyl-1,3-dioxane-4,6-dione] | – | – | 640 nM | – | –
20 | COc1ccc(NC(NC(c2ccc(CC(C)(C)C)s2)C2CCCCC2)=C2C(=O)OC(C)(C)OC2=O)c(OC)c1 (stereo not drawn) [Example 20, 5-[[[Cyclohexyl-[5-(2,2-dimethylpropyl)-2-thienyl]methyl]amino]-[(2,4-dimethoxyphenyl)amino]-methylene]-2,2-dimethyl-1,3-dioxane-4,6-dione] | – | 95 (25) % | – | – | –
21 | CCCCCCN(Cc1csc2ccccc12)C(Nc1cc(C(C)(C)C)c(O)c(C(C)(C)C)c1)=C1C(=O)OC(C)(C)OC1=O [Example 21, 5-[(Benzo[b]thiophen-3-ylmethyl-hexyl-amino)-(3,5-di-tert-butyl-4-hydroxy-phenylamino)-methylene]-2,2-dimethyl-[1,3]dioxane-4,6-dione] | – | 98 (25) % | 380 nM | – | –
22 | CCCCCCN(Cc1cc2ccccc2s1)C(Nc1ccc(OC)cc1OC)=C1C(=O)OC(C)(C)OC1=O [Example 22, 5-[[(Benzo[b]thiophen-2-ylmethyl)-hexyl-amino]-(2,4-dimethoxyphenylamino)-methylene]-2,2-dimethyl-[1,3]dioxane-4,6-] | – | 94 (25) % | 620 nM | – | –
23 | CCCCCC(C)N(Cc1cc2ccccc2s1)C(Nc1ccc(OC)cc1OC)=C1C(=O)OC(C)(C)OC1=O (stereo not drawn) [Example 23, 5-[[Benzo[b]thiophen-2-ylmethyl-(1-methyl-hexyl)-amino]-(2,4-dimethoxy-phenylamino)-methylene]-2,2-dimethyl-[1,3]dioxane-4,6-dione] | – | 97 (25) % | 350 nM | – | –
24 | CCCCCC(C)N(Cc1cc2ccccc2s1)C(Nc1cc(C(C)(C)C)c(O)c(C(C)(C)C)c1)=C1C(=O)OC(C)(C)OC1=O (stereo not drawn) [Example 24, 5-[[Benzo[b]thiophen-2-ylmethyl-(1-methyl-hexyl)-amino]-(3,5-di-tert-butyl-4-hydroxy-phenylamino)methylene]-2,2-dimethyl-[1,3]dioxane-4,6-dione] | – | 98 (25) % | 310 nM | – | –
